Data as given in patent US20130317116A1, “EXTERNAL SKIN PREPARATION” (JX NIPPON OIL & ENERGY CORPORATION, priority 2011, published 2013).

Test: Singlet oxygen quenching activity of carotenoids by the ESR method
Assay type: physicochemical
Details: for ESR signal intensity / ESR signal intensity Mean: carotenoid 2.5 mM, lower intensity = more effective quenching; for ESR signal intensity: hematoporphyrin + UVA, TMPD spin trap; for ESR signal intensity Mean: mean of three independent experiments, control 3.20; for singlet oxygen quenching activity compared with astaxanthin: ESR method, Table 3 and FIG. 1
Excerpt: Crosslinking of dermal collagen by singlet oxygen is one reason for wrinkle formation caused by photoaging (Non-Patent Document 1). If the external skin preparation according to the present invention can quench singlet oxygen, specifically, changes in collagen as observed on the photoaged skin can be inhibited, and anti-aging effects can be exerted. Accordingly, pharmacological evaluation of the external skin preparation according to the present invention in respect of improvement and prevention of wrinkle formation can be performed using the singlet oxygen quenching capacity as the indicator. For example, pharmacological evaluation of the external skin preparation according to the present invention can be performed by determining whether or not the external skin preparation according to the present invention has sufficient singlet oxygen quenching capacity by the electron spin resonance (ESR) method that is employed for evaluation of the singlet oxygen quenching activity.
Evaluation was carried out by the ESR method using an ESR apparatus (JEOLJES-FR30, JEOL Ltd.). The method of evaluation is described below.
50 μl of 250 mM spin trap agent, 50 μl of an aqueous solution of 2,2,6,6-tetramethyl-4-piperidione (TMPD), and 50 μl of an acetone solution of 10 mM carotenoid were added to 50 μl of 100 mM phosphate buffer (pH 7.4), these components were thoroughly mixed, 50 μl of an aqueous solution of 0.25 mM hematoporphyrin was added thereto as a singlet oxygen generator, and the resultant was irradiated with ultraviolet A (UVA) to generate singlet oxygen.
Subsequently, ESR signals based on stable nitroxyl radicals (4-oxo-TEMPO) generated upon the reaction between singlet oxygen and TMPD in the reaction solution were measured.
No antioxidant was applied to a control group. The results are the mean and the standard deviations of three independent experiments.

[1] = first of three independent experiments
[2] = second value column of three independent experiments
[3] = third value column of three independent experiments

SMILES | ESR signal intensity [1] | ESR signal intensity [2] | ESR signal intensity [3] | ESR signal intensity Mean | singlet oxygen quenching activity compared with astaxanthin
CC1=C(/C=C/C(C)=C/C=C/C(C)=C/C=C/C=C(C)/C=C/C=C(C)/C=C/C2=C(C)C(=O)[C@@H](O)CC2(C)C)C(C)(C)C[C@H](O)C1=O [Astaxanthin, astaxanthin, reference compound] | 2.00 | 2.33 | 2.72 | 2.35 | 
CC1=C(/C=C/C(C)=C/C=C/C(C)=C/C=C/C=C(C)/C=C/C=C(C)/C=C/C2=C(C)C(=O)[C@@H](O)CC2(C)C)C(C)(C)CCC1=O [Adonirubin, adonirubin] | 0.79 | 1.13 | 1.11 | 1.01 | significantly higher than that of astaxanthin
CC1=C(/C=C/C(C)=C/C=C/C(C)=C/C=C/C=C(C)/C=C/C=C(C)/C=C/C2=C(C)C(=O)[C@@H](O)CC2(C)C)C(C)(C)C[C@H](O)C1 [Adonixanthin, adonixanthin] | 0.74 | 0.97 | 0.72 | 0.81 | significantly higher than that of astaxanthin
